According to ChEMBL document CHEMBL4732255, “Evaluation of the antiproliferative activity of 106 marine microbial metabolites against human lung cancer cells and potential antiproliferative mechanism of purpuride G” (Bioorg Med Chem Lett, 2021):

Legend:
[1] = system: HL-60; experiment: Antiproliferative activity against human HL-60 cells assessed as reduction in cell viability incubated for 72 hrs by sulforhodamine B assay; assay type: functional, cell-based; details: HL-60, 72 h
[2] = system: A549; experiment: Antiproliferative activity against human A549 cells assessed as reduction in cell viability measured after 72 hrs by sulforhodamine B assay; assay type: functional, cell-based; details: A549, 72 h
[3] = system: NCI-H157; experiment: Antiproliferative activity against human NCI-H157 cells assessed as reduction in cell viability measured after 72 hrs by sulforhodamine B assay; assay type: functional, cell-based; details: NCI-H157, 72 h
[4] = system: A549; experiment: Antiproliferative activity against human A549 cells assessed as cell viability at 50 uM measured after 72 hrs by sulforhodamine B assay; assay type: functional; details: read-out: Activity
[5] = system: NCI-H157; experiment: Antiproliferative activity against human NCI-H157 cells assessed as cell viability at 50 uM measured after 72 hrs by sulforhodamine B assay; assay type: functional; details: read-out: Activity
[6] = system: U-251; experiment: Antiproliferative activity against human U-251 cells assessed as reduction in cell viability incubated for 72 hrs by sulforhodamine B assay; assay type: functional, cell-based; details: U-251, 72 h
[7] = system: U-87 MG; experiment: Antiproliferative activity against human U-87MG cells assessed as reduction in cell viability incubated for 72 hrs by sulforhodamine B assay; assay type: functional, cell-based, U-87MG ATCC

Row | Compound | IC50 [1] | IC50 [2] | IC50 [3] | IC50 [6] | IC50 [7] | viability at 50 µM [4] | viability at 50 µM [5]
1 | CC1=C[C@]2(C)[C@H](O)C[C@]34C[C@](O)(Cc5ccc(cc5)O[C@H]5[C@H]([C@H]2C3=O)[C@@H]1[C@]1(C)C[C@H](C)C[C@H](C)[C@@H]51)NC4=O | 14.9 µM |  |  |  |  |  | 
2 | CC1=C[C@]2(C)C(=O)C[C@]34C[C@](O)(Cc5ccc(cc5)O[C@H]5[C@@H]([C@@H]1[C@]1(C)C[C@H](C)C[C@H](C)[C@@H]51)[C@H]2C3=O)NC4=O |  |  |  | 1.28 µM | 1.06 µM |  | 
3 | Cc1cc(O)cc(Oc2cc(C)cc(O)c2)c1 [DIORCINOL] |  | 31.6 µM | 20.2 µM |  |  | < 50% | < 50%
4 | C[C@H]1Oc2c(c(O)c3c4c(c(O)ccc24)OC3=O)C1(C)C |  | 42.9 µM | 41.9 µM |  |  | < 50% | < 50%
5 | CO[C@@]1(C)N(C[C@@H](O)c2ccccc2)C(=O)c2cc3c4ccccc4n(C)c3c(=O)n21 |  | 44.3 µM | 22.9 µM |  |  | < 50% | < 50%
6 | CC1=C[C@@]2(C)[C@@H]3C(=O)[C@]4(C[C@@H]2O)C[C@](O)(Cc2ccc(cc2)O[C@H]2[C@H]3[C@@H]1[C@]1(C)C[C@H](C)C[C@H](C)[C@@H]21)NC4=O | 7.4 µM |  |  |  |  |  | 
7 | CC(=O)c1nc(C(=O)NCCc2ccccc2)cc2c1[nH]c1ccccc12 |  | 48.2 µM | 19.4 µM |  |  | < 50% | < 50%
8 | O=c1ncc2ncn([C@@H]3O[C@@H](CO)[C@H](O)[C@@H]3O)c2[nH]1 |  | 28.6 µM | 0.9 µM |  |  | < 50% | < 50%
9 | O=C1c2cc(O)cc(O)c2C(=O)c2c1cc1c(c2O)[C@@H]2CCO[C@@H]2O1 |  | 45.9 µM | 27 µM |  |  | < 50% | < 50%
10 | CC(C)[C@@H](C)/C=C/[C@@H](C)[C@H]1CC[C@H]2C3=CC=C4C[C@@H](O)CC[C@]4(C)[C@H]3CC[C@]12C [ERGOSTEROL] |  | 19.2 µM | 23.3 µM |  |  | < 50% | < 50%
11 | CO[C@@]1(C)N(/C=C/c2ccccc2)C(=O)C2=C[C@@]3(C(=O)N(C)c4ccccc43)C(=O)N21 |  | 38.4 µM | 8.1 µM |  |  | < 50% | < 50%

Now from value to molecule, other results behind:

Row | IC50 [1] | IC50 [2] | IC50 [3] | IC50 [6] | IC50 [7] | Compound | viability at 50 µM [4] | viability at 50 µM [5]
12 |  | 18.2 µM | 8.6 µM |  |  | CC(=O)c1nc(C(=O)NCCc2ccccc2)cc2c3ccccc3n(C)c12 | < 50% | < 50%
13 |  | 7.3 µM | 6.5 µM | 22.8 µM | 12.4 µM | CC1=C[C@@]2(C)[C@@H]3C(=O)[C@]4(C[C@@H]2O)C[C@@](O)(Cc2ccc(cc2)O[C@H]2[C@H]3[C@@H]1[C@]1(C)C[C@H](C)C[C@H](C)[C@@H]21)NC4=O | < 50% | < 50%
14 |  | 21.2 µM | 11 µM |  |  | Cn1c2ccccc2c2cc3n(c(=O)c21)[C@@](C)(O)N(CCc1ccccc1)C3=O | < 50% | < 50%
15 |  | 13.2 µM | 17.8 µM |  |  | CO[C@@]12Cc3ccc(cc3)O[C@H]3[C@@H]4[C@H]5C(=O)[C@](C[C@@H](O)[C@@]5(C)C=C(C)[C@H]4[C@]4(C)C[C@H](C)C[C@H](C)[C@@H]34)(C1)C(=O)N2 | < 50% | < 50%
16 |  | 10.6 µM | 7.2 µM |  |  | CO[C@@]1(C)N(/C=C\c2ccccc2)C(=O)c2cc3c4ccccc4n(C)c3c(=O)n21 | < 50% | < 50%
17 |  | 1.5 µM | 3 µM |  |  | COc1cc(O)c2c(c1)C(=O)c1cc(C)cc(O)c1C2=O [PHYSCION] | < 50% | < 50%
18 |  | 21.6 µM | 20.2 µM |  |  | CO[C@@]1(C)N(/C=C/c2ccccc2)C(=O)c2cc3c4ccccc4n(C)c3c(=O)n21 | < 50% | < 50%
19 |  | 10.3 µM | 38.5 µM |  |  | C=C[C@@]1(C)C=C(C)[C@@H]2[C@@H]3[C@H](Oc4ccc(cc4)C[C@@H]4C(=O)NC(=O)[C@@H]4C(=O)[C@H]31)[C@@H]1[C@@H](C)C[C@@H](C)C[C@]12C | < 50% | < 50%
20 |  | 12.9 µM | 9.8 µM |  |  | CO[C@@]1(C)N(CCc2ccccc2)C(=O)c2cc3c4ccccc4n(C)c3c(=O)n21 | < 50% | < 50%
21 |  | 25.2 µM | 19.6 µM |  |  | C=C[C@@]1(C)C=C(C)[C@@H]2[C@@H]3[C@H](Oc4ccc(cc4)C[C@]4(OC)C[C@H](C(=O)N4)C(=O)[C@H]31)[C@@H]1[C@@H](C)C[C@@H](C)C[C@]12C | < 50% | < 50%
22 |  | 20.9 µM | 32.4 µM |  |  | CC1=C([C@H](C)[C@@H](C)OC=O)C(=O)C2=C(C1=O)[C@@H]1O[C@H](C)[C@@H](C)c3c(C)c(O)cc(c31)O2 [CITRININ H1] | < 50% | < 50%
23 |  | 12.7 µM | 15.1 µM |  |  | CO[C@@]1(C)N(/C=C/c2ccccc2)C(=O)c2cc3c([nH]c4ccccc43)c(=O)n21 | < 50% | < 50%
24 |  | 5.7 µM | 2.7 µM |  |  | Cc1cc(O)c2c(c1)C(=O)c1cccc(O)c1C2=O [CHRYSOPHANOL] | < 50% | < 50%
25 |  | 12.3 µM | 22.3 µM |  |  | C=C[C@@]1(C)C=C(C)[C@@H]2[C@@H]3[C@H](Oc4ccc(cc4)C[C@]45NC(=O)/C(=C(/O)[C@H]31)[C@H]4[C@@H]1C(=O)C(C)=C3[C@H](C)[C@@H](C)O[C@@]3(O)[C@]1(O)O5)[C@@H]1[C@@H](C)C[C@@H](C)C[C@]12C | < 50% | < 50%
